Reference: the supplement of paper PMC12463676, “Small-molecule dissolution of stress granules by redox modulation benefits ALS models” (Nature Chemical Biology, 2025)

The targets below were run with NC(=O)CCCCC1CCSS1 [lipoamide] (assay: thermal stability z-score vs DMSO; higher = more thermally stabilized by treatment). Conditions: HeLa; lipoamide concentration 100 µM; arsenate co-treatment: 1 mM arsenate 1 h.
Description: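 Cellular thermal proteome profiling in HeLa cells. Cells were treated with 100 µM lipoamide for 1 h, with or without 1 mM arsenate for a further 1 h, then heated to ten temperatures (37-66.3 °C), and soluble protein was quantified by TMT mass spectrometry relative to 0.1% DMSO controls. The thermal stability score (sum of log2 fold changes minus the abundance score) was transformed to a z-score; mean of n = 3 experiments.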
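Note: each temperature applied for 3 min, abundance score taken as mean log2 fold change at the two lowest temperatures, z-score obtained by mean subtraction and division by SD.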

Sequence of UniProt Q9BQ69 (Q9BQ69 whole entry): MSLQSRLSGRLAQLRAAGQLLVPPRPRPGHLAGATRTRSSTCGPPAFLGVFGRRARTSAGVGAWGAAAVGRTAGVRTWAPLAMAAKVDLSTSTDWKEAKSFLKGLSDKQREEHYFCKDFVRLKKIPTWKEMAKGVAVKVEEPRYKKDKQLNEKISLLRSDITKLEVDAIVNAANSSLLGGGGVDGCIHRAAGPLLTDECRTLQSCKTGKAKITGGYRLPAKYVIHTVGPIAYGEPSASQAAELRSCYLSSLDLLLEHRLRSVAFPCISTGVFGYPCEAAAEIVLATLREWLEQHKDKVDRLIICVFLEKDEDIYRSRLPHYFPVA
Sequence of UniProt Q9Y3E5 (Q9Y3E5 whole entry): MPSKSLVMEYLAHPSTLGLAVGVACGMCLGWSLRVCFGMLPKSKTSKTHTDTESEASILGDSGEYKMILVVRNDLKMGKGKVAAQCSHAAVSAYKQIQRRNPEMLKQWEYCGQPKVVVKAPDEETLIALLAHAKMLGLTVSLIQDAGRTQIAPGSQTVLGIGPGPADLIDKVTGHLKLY
Sequence of UniProt Q93100 (Q93100 whole entry): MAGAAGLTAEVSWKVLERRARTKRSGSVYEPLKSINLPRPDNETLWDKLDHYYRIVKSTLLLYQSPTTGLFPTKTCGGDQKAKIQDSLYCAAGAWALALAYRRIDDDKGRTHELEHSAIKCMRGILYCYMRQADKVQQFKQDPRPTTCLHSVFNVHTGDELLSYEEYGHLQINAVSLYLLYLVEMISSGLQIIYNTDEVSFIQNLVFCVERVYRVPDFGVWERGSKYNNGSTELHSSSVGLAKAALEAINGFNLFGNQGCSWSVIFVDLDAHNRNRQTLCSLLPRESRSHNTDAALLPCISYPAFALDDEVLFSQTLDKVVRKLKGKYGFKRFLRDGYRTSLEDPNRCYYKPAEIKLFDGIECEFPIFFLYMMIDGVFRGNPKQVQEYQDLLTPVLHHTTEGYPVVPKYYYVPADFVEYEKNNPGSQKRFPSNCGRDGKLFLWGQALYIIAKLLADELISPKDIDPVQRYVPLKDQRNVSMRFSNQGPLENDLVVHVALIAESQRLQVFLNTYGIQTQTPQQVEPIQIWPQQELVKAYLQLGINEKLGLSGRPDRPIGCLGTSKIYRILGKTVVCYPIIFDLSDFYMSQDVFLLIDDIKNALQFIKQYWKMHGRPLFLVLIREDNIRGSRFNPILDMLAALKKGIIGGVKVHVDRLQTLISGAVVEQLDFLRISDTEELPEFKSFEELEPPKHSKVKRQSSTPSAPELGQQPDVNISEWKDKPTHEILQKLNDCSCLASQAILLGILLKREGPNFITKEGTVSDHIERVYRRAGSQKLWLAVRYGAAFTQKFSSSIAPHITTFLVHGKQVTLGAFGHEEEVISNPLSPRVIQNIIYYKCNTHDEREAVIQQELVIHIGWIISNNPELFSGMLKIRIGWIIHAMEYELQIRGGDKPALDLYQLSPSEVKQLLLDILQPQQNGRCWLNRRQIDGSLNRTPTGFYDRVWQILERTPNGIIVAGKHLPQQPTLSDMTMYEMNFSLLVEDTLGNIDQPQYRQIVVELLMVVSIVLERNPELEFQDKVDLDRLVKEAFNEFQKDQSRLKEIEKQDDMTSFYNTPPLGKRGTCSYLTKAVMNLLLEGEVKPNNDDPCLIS
Sequence of UniProt P21964 (P21964 whole entry): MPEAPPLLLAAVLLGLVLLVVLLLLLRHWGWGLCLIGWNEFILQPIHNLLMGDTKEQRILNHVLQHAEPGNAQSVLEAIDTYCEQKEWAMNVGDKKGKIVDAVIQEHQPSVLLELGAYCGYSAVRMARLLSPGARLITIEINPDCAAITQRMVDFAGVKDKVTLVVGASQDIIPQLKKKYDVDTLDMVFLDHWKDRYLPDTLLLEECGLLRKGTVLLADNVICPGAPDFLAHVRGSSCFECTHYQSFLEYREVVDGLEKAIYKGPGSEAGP

Going from PHKB (UniProt Q93100) to RAB6A (UniProt P20340), the thermal stability z-score rises from 0.125 to 0.448.

Compared with TM9SF2 (UniProt Q99805), MICAL3 (UniProt Q7RTP6) is higher in thermal stability z-score: -0.509 for the first, 0.231 for the second.

Going from COMT (UniProt P21964) to RALY (UniProt Q9UKM9), the thermal stability z-score falls from 0.121 to 0.0855.

Going from PTRH2 (UniProt Q9Y3E5) to MACROD1 (UniProt Q9BQ69), the thermal stability z-score rises from -0.239 to 1.61.

First: HAUS1 (UniProt Q96CS2)
Second: RTKN (UniProt Q9BST9)
The thermal stability z-score of the first is higher: 0.0371 for the first, -0.183 for the second.

Compared with H6PD (UniProt O95479), SLC30A9 (UniProt Q6PML9) is higher in thermal stability z-score: -1.51 for the first, 1.14 for the second.

Going from CENPE (UniProt Q02224) to HIP1R (UniProt O75146), the thermal stability z-score rises from 0.141 to 0.15.

Compared with EGFL7 (UniProt Q9UHF1), GNAI2 (UniProt P04899) is higher in thermal stability z-score: 0.126 for the first, 0.83 for the second.

First: RAB3GAP2 (UniProt Q9H2M9)
Sequence of UniProt Q9H2M9 (Q9H2M9 whole entry): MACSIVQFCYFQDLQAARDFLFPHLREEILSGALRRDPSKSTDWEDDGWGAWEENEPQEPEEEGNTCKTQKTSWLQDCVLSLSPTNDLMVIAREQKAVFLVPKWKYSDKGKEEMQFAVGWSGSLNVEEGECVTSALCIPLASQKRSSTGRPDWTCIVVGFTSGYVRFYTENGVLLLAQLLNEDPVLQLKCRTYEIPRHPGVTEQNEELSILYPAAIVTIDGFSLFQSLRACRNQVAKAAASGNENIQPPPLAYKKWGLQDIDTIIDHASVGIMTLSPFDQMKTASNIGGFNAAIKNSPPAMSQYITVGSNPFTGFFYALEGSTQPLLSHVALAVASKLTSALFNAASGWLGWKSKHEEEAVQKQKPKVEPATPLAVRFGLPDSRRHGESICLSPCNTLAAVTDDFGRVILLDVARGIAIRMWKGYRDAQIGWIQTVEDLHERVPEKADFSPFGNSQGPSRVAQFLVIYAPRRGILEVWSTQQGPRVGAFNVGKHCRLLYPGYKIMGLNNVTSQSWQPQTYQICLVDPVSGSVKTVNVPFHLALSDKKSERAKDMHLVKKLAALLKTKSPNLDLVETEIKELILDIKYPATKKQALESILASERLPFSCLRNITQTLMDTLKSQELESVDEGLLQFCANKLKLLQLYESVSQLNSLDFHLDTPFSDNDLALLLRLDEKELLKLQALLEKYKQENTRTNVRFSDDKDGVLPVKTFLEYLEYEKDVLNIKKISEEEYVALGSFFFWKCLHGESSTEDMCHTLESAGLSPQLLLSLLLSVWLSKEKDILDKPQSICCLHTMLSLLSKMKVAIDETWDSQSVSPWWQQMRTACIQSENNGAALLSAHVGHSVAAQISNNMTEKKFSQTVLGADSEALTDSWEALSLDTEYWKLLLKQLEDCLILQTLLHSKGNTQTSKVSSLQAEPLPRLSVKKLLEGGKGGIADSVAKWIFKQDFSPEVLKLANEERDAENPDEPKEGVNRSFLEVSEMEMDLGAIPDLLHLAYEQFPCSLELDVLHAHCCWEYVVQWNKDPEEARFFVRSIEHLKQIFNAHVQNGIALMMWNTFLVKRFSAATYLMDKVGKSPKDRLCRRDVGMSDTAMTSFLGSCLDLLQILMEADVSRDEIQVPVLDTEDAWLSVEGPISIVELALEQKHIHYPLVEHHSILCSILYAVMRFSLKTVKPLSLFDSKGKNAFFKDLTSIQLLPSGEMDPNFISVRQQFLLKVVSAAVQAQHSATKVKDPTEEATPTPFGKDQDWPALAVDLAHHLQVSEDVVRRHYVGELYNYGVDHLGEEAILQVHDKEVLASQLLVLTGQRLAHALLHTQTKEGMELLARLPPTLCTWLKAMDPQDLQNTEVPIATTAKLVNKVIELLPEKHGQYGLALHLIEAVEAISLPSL
Second: MPZL2 (UniProt O60487)
Sequence of UniProt O60487 (O60487 whole entry): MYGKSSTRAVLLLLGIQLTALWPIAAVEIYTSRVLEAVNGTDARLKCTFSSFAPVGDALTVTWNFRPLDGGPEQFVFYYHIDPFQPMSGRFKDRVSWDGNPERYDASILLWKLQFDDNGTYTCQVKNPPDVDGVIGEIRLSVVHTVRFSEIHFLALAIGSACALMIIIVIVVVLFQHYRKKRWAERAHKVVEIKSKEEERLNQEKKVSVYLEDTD
The thermal stability z-score of the first is lower: -0.717 for the first, 0.503 for the second.

Compared with MYBBP1A (UniProt Q9BQG0), ADAT2 (UniProt Q7Z6V5) is lower in thermal stability z-score: 1.21 for the first, -0.663 for the second.

First: MAPRE2 (UniProt Q15555)
Second: LZTFL1 (UniProt Q9NQ48)
The thermal stability z-score of the first is lower: -0.858 for the first, 0.0385 for the second.

First: GPR89A|GPR89B
Second: DYNLL2 (UniProt Q96FJ2)
The thermal stability z-score of the first is lower: -0.28 for the first, 0.256 for the second.

Compared with SAR1B (UniProt Q9Y6B6), USP7 (UniProt Q93009) is higher in thermal stability z-score: 0.0537 for the first, 0.299 for the second.

First: TMEM181 (UniProt Q9P2C4)
Sequence of UniProt Q9P2C4 (Q9P2C4 whole entry): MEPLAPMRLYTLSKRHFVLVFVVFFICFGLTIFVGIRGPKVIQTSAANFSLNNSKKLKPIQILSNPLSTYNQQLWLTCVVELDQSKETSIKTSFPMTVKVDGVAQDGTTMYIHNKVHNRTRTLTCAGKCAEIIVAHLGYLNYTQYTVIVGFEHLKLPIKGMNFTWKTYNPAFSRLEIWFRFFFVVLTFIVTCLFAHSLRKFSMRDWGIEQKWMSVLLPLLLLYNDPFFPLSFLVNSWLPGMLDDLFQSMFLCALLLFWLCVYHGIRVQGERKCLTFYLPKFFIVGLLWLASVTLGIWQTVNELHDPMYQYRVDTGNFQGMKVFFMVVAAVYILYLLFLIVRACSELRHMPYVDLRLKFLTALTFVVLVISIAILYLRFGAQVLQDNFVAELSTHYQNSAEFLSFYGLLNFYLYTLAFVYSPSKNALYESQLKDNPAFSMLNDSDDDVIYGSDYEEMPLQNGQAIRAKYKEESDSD
Second: TAB2 (UniProt Q9NYJ8)
Sequence of UniProt Q9NYJ8 (Q9NYJ8 whole entry): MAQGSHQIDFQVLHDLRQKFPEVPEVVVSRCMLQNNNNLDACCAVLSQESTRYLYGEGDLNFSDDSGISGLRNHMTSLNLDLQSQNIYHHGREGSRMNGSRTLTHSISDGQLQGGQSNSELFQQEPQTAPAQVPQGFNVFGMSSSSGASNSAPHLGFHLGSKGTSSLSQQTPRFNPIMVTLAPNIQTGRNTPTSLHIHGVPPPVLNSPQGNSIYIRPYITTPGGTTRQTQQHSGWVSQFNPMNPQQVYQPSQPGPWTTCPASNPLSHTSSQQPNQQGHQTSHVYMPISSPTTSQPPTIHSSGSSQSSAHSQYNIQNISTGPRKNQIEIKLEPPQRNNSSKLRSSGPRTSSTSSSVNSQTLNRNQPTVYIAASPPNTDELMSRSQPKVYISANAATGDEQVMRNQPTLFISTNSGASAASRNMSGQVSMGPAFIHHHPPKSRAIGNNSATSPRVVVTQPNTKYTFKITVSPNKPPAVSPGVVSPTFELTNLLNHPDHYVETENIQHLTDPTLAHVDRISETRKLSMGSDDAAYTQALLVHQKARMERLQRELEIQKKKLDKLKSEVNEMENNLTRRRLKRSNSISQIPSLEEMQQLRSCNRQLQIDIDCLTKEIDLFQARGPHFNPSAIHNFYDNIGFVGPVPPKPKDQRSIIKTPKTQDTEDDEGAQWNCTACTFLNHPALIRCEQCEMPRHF
The thermal stability z-score of the first is higher: 0.128 for the first, 0.0348 for the second.

First: CCDC86 (UniProt Q9H6F5)
Sequence of UniProt Q9H6F5 (Q9H6F5 whole entry): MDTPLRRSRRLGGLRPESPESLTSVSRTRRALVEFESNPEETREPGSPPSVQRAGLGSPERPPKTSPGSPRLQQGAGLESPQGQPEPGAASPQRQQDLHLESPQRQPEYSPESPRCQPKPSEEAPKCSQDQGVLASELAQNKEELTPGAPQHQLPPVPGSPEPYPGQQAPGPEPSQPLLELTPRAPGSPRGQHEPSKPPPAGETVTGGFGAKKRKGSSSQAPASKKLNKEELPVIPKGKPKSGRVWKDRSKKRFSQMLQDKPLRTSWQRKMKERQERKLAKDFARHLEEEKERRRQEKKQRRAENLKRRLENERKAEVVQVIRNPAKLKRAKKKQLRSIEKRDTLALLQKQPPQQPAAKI
Second: MALSU1 (UniProt Q96EH3)
The thermal stability z-score of the first is higher: -0.342 for the first, -1.47 for the second.

Same assay, conditions: HeLa; lipoamide concentration 100 µM; arsenate co-treatment: none

Compared with PHKB (UniProt Q93100), RAB6A (UniProt P20340) is higher in thermal stability z-score: 0.135 for the first, 0.693 for the second.

First: TM9SF2 (UniProt Q99805)
Second: MICAL3 (UniProt Q7RTP6)
The thermal stability z-score of the first is lower: -0.486 for the first, 0.334 for the second.

Compared with COMT (UniProt P21964), RALY (UniProt Q9UKM9) is lower in thermal stability z-score: 0.102 for the first, -0.0305 for the second.

Going from PTRH2 (UniProt Q9Y3E5) to MACROD1 (UniProt Q9BQ69), the thermal stability z-score rises from -0.143 to 0.262.

First: HAUS1 (UniProt Q96CS2)
Second: RTKN (UniProt Q9BST9)
The thermal stability z-score of the first is higher: 0.00541 for the first, -0.084 for the second.

Going from H6PD (UniProt O95479) to SLC30A9 (UniProt Q6PML9), the thermal stability z-score rises from -1.8 to 1.13.

First: CENPE (UniProt Q02224)
Second: HIP1R (UniProt O75146)
The thermal stability z-score of the first is lower: 0.088 for the first, 0.28 for the second.

Going from EGFL7 (UniProt Q9UHF1) to GNAI2 (UniProt P04899), the thermal stability z-score rises from 0.102 to 0.313.

First: RAB3GAP2 (UniProt Q9H2M9)
Second: MPZL2 (UniProt O60487)
The thermal stability z-score of the first is lower: -0.266 for the first, -0.0637 for the second.

First: MYBBP1A (UniProt Q9BQG0)
Second: ADAT2 (UniProt Q7Z6V5)
The thermal stability z-score of the first is higher: 0.675 for the first, -0.376 for the second.

Compared with MAPRE2 (UniProt Q15555), LZTFL1 (UniProt Q9NQ48) is lower in thermal stability z-score: 0.732 for the first, 0.0985 for the second.

First: GPR89A|GPR89B
Second: DYNLL2 (UniProt Q96FJ2)
The thermal stability z-score of the first is lower: -0.026 for the first, 0.641 for the second.

First: SAR1B (UniProt Q9Y6B6)
Second: USP7 (UniProt Q93009)
The thermal stability z-score of the first is higher: 0.376 for the first, 0.123 for the second.

First: TMEM181 (UniProt Q9P2C4)
Second: TAB2 (UniProt Q9NYJ8)
The thermal stability z-score of the first is higher: 0.201 for the first, -0.0384 for the second.

First: CCDC86 (UniProt Q9H6F5)
Second: MALSU1 (UniProt Q96EH3)
The thermal stability z-score of the first is higher: -0.895 for the first, -1.5 for the second.

What follows are targets tested with O=[As]([O-])(O)O.[K+] [potassium arsenate] in the same assay as above. Conditions: HeLa; arsenate concentration 1 mM.
Description: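 Cellular thermal proteome profiling in HeLa cells treated with 1 mM arsenate for 1 h (DMSO pretreatment), heated to ten temperatures (37-66.3 °C). Soluble protein was quantified by TMT mass spectrometry relative to DMSO controls; the thermal stability score was transformed to a z-score; mean of n = 3 experiments.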

Going from PHKB (UniProt Q93100) to RAB6A (UniProt P20340), the thermal stability z-score rises from 0.278 to 0.284.

Compared with TM9SF2 (UniProt Q99805), MICAL3 (UniProt Q7RTP6) is lower in thermal stability z-score: 1.03 for the first, 0.0242 for the second.

Going from COMT (UniProt P21964) to RALY (UniProt Q9UKM9), the thermal stability z-score rises from -0.525 to 0.00385.

Compared with PTRH2 (UniProt Q9Y3E5), MACROD1 (UniProt Q9BQ69) is higher in thermal stability z-score: -0.0653 for the first, 1.33 for the second.

Going from HAUS1 (UniProt Q96CS2) to RTKN (UniProt Q9BST9), the thermal stability z-score falls from 0.0563 to -0.395.

Going from H6PD (UniProt O95479) to SLC30A9 (UniProt Q6PML9), the thermal stability z-score rises from -0.472 to 1.17.

Compared with CENPE (UniProt Q02224), HIP1R (UniProt O75146) is lower in thermal stability z-score: 0.013 for the first, -0.232 for the second.

First: EGFL7 (UniProt Q9UHF1)
Second: GNAI2 (UniProt P04899)
The thermal stability z-score of the first is higher: -0.108 for the first, -0.276 for the second.

Going from RAB3GAP2 (UniProt Q9H2M9) to MPZL2 (UniProt O60487), the thermal stability z-score falls from 0.64 to -0.0559.

Going from MYBBP1A (UniProt Q9BQG0) to ADAT2 (UniProt Q7Z6V5), the thermal stability z-score rises from -1.35 to -0.708.

First: MAPRE2 (UniProt Q15555)
Second: LZTFL1 (UniProt Q9NQ48)
The thermal stability z-score of the first is higher: 1.11 for the first, -0.312 for the second.

Compared with GPR89A|GPR89B, DYNLL2 (UniProt Q96FJ2) is higher in thermal stability z-score: -0.0938 for the first, 0.118 for the second.

First: SAR1B (UniProt Q9Y6B6)
Second: USP7 (UniProt Q93009)
The thermal stability z-score of the first is higher: 0.0901 for the first, -0.483 for the second.

Going from TMEM181 (UniProt Q9P2C4) to TAB2 (UniProt Q9NYJ8), the thermal stability z-score falls from 0.205 to -0.292.

Going from CCDC86 (UniProt Q9H6F5) to MALSU1 (UniProt Q96EH3), the thermal stability z-score rises from -2.01 to -1.01.
